This is an account of results in PubChem BioAssay AID743510 (Broad Institute, 2014).

In this experiment the target is Bursicon receptor LGR2 (rickets), Drosophila melanogaster. The experiment can be described thus: inhibition of bursicon-stimulated LGR2 cAMP signaling – cell-based, HEK293, CRE-luciferase, beta-gal normalized, dry powder, dose response (AID 743510). To be noted: antagonist luminescence.

The source made the active and inactive calls.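 How the source made its calls: active means compounds that block bursicon-driven reporter light with an IC50 below a set limit; inactive means IC50 above that limit.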

With `C[C@H]1CCCCO[C@@H](CN(C)C(=O)Nc2cccc3ccccc23)[C@@H](C)CN([C@@H](C)CO)C(=O)c2cc(NC(=O)C3CCCCC3)ccc2O1`, the IC50 – broadly, the concentration at which inhibition is half-maximal – is below 35 µM.

Consider `CC(=O)Nc1ccc2c(c1)C(=O)N([C@H](C)CO)C[C@H](C)[C@H](CN(C)C(=O)Nc1ccc(F)cc1)OCCCC[C@H](C)O2`, for which the IC50 is > 35 µM (inactive).

For the compound `C[C@H](CO)N1C[C@H](C)[C@H](CN(C)C(=O)Nc2ccc(F)cc2)OCCCC[C@H](C)Oc2ccc(NC(=O)C3CC3)cc2C1=O`, the IC50 is > 35 µM (inactive).

On to `C[C@@H]1CCCCO[C@H](CN(C)C(=O)Nc2cccc3ccccc23)[C@@H](C)CN([C@H](C)CO)C(=O)c2cc(NC(=O)C3CCCCC3)ccc2O1`, for which the IC50 is > 35 µM (inactive).

`Cc1ccc(NC(=O)N(C)C[C@@H]2OCCCC[C@H](C)Oc3ccc(NC(=O)C4CCCCC4)cc3C(=O)N([C@H](C)CO)C[C@@H]2C)cc1`: the IC50 was below 35 µM.

For `C[C@H](CO)N1C[C@H](C)[C@H](CN(C)C(=O)Nc2ccc(F)cc2)OCCCC[C@H](C)Oc2ccc(NC(=O)C3CCOCC3)cc2C1=O`, the IC50 is > 35 µM (inactive).

As for `C[C@@H]1CCCCO[C@@H](CN(C)C(=O)Nc2cccc3ccccc23)[C@@H](C)CN([C@H](C)CO)C(=O)c2cc(NC(=O)C3CCCCC3)ccc2O1`, the IC50 was > 35 µM (inactive).

As for `C[C@@H]1CN([C@H](C)CO)C(=O)c2cc(NC(=O)C3CCCCC3)ccc2O[C@@H](C)CCCCO[C@@H]1CN(C)C(=O)Nc1cccc2ccccc12`, the IC50 was > 35 µM (inactive).

Regarding `C[C@H](CO)N1C[C@H](C)[C@H](CN(C)C(=O)Nc2ccc(Cl)cc2)OCCCC[C@H](C)Oc2ccc(NC(=O)C3CCCCC3)cc2C1=O`, the IC50 is below 35 µM.

As to `C[C@H]1CCCCO[C@H](CN(C)C(=O)Nc2cccc3ccccc23)[C@@H](C)CN([C@@H](C)CO)C(=O)c2cc(NC(=O)C3CCCCC3)ccc2O1`, the IC50 was > 35 µM (inactive).

Regarding `C[C@H](CO)N1C[C@H](C)[C@H](CN(C)C(=O)Nc2cccc(F)c2)OCCCC[C@H](C)Oc2ccc(NC(=O)C3CCCCC3)cc2C1=O`, the IC50 is below 35 µM.

Take `C[C@@H]1CN([C@@H](C)CO)C(=O)c2cc(NC(=O)C3CCCCC3)ccc2O[C@@H](C)CCCCO[C@@H]1CN(C)C(=O)Nc1cccc2ccccc12`: the IC50 was > 35 µM (inactive).

In the case of `C[C@@H]1CCCCO[C@@H](CN(C)C(=O)Nc2cccc3ccccc23)[C@H](C)CN([C@H](C)CO)C(=O)c2cc(NC(=O)C3CCCCC3)ccc2O1`, the IC50 is > 35 µM (inactive).

As for `C[C@H](CO)N1C[C@H](C)[C@@H](CN(C)C(=O)Nc2cccc3ccccc23)OCCCC[C@H](C)Oc2ccc(NC(=O)C3CCCCC3)cc2C1=O`, the IC50 is > 35 µM (inactive).

On to `C[C@@H]1CCCCO[C@H](CN(C)C(=O)Nc2cccc3ccccc23)[C@H](C)CN([C@H](C)CO)C(=O)c2cc(NC(=O)C3CCCCC3)ccc2O1`, for which the IC50 was > 35 µM (inactive).

As to `C[C@@H]1CN([C@H](C)CO)C(=O)c2cc(NC(=O)C3CCCCC3)ccc2O[C@@H](C)CCCCO[C@H]1CN(C)C(=O)Nc1cccc2ccccc12`, the IC50 was > 35 µM (inactive).

With `C[C@H](CO)N1C[C@H](C)[C@H](CN(C)C(=O)Nc2ccccc2F)OCCCC[C@H](C)Oc2ccc(NC(=O)C3CCCCC3)cc2C1=O`, the half-maximal inhibitory concentration (IC50) is below 35 µM.

For the compound `C[C@H](CO)N1C[C@H](C)[C@H](CN(C)C(=O)Nc2cccc3ccccc23)OCCCC[C@H](C)Oc2ccc(NC(=O)C3CCCCC3)cc2C1=O`, the IC50 is below 35 µM.

In the case of `C[C@H](CO)N1C[C@H](C)[C@H](CN(C)C(=O)Nc2ccc3ccccc3c2)OCCCC[C@H](C)Oc2ccc(NC(=O)C3CCCCC3)cc2C1=O`, the IC50 is below 35 µM.

On to `C[C@@H]1CN([C@@H](C)CO)C(=O)c2cc(NC(=O)C3CCCCC3)ccc2O[C@@H](C)CCCCO[C@H]1CN(C)C(=O)Nc1cccc2ccccc12`, for which the IC50 is below 35 µM.

On to `C[C@H](CO)N1C[C@H](C)[C@H](CN(C)C(=O)Nc2ccc(F)cc2)OCCCC[C@H](C)Oc2ccc(NC(=O)C3CCCCCC3)cc2C1=O`, for which the IC50 was below 35 µM.

Consider `C[C@@H]1CCCCO[C@@H](CN(C)C(=O)Nc2cccc3ccccc23)[C@@H](C)CN([C@@H](C)CO)C(=O)c2cc(NC(=O)C3CCCCC3)ccc2O1`, for which the IC50 is > 35 µM (inactive).

On to `C[C@@H]1CCCCO[C@H](CN(C)C(=O)Nc2cccc3ccccc23)[C@@H](C)CN([C@@H](C)CO)C(=O)c2cc(NC(=O)C3CCCCC3)ccc2O1`, for which the IC50 is > 35 µM (inactive).

Turning to `C[C@H](CO)N1C[C@H](C)[C@H](CN(C)C(=O)Nc2ccc(F)cc2)OCCCC[C@H](C)Oc2ccc(NC(=O)C3CCCC3)cc2C1=O`, the IC50 is below 35 µM.

Take `C[C@@H]1CCCCO[C@H](CN(C)C(=O)Nc2cccc3ccccc23)[C@H](C)CN([C@@H](C)CO)C(=O)c2cc(NC(=O)C3CCCCC3)ccc2O1`: the IC50 was > 35 µM (inactive).

On to `C[C@@H]1CCCCO[C@@H](CN(C)C(=O)Nc2cccc3ccccc23)[C@H](C)CN([C@@H](C)CO)C(=O)c2cc(NC(=O)C3CCCCC3)ccc2O1`, for which the IC50 was > 35 µM (inactive).
